These results are taken from patent US20040167188A1, “Protein-tyrosine phosphatase inhibitors and uses thereof” (priority 2003, published 2004).

Where two headings read alike, the source gives them in different places. Bounds are passed on as bounds.

In one assay the target is T1, Bovine PP2B (Bos taurus, UniProt P48452).
T1 construct: purchased Sigma C1907
The assay can be described thus: Inhibition constant determination, selectivity panel: PP2B (pNPP hydrolysis). The class given is biochemical. To be noted: competitive Ki; pNPP substrate; read-out: Phosphatase Inhibition Constants (Kic) PP2B. How it is done:
Bovine PP2B was obtained commercially (C1907 Sigma, St. Louis, Mo.).
(§1) The Kic and Kiu values are calculated as described for PTP1B. The assays were performed as described for PTP-1B except for the following changes. All the phosphatases except PP2B use the same 2× assay buffer as PTP1B. PP2B uses a 2× assay buffer which contains 100 mM TRIS-HCl pH 8.6, 40 mM MgCl2, 0.2 mM CaCl2, 6 mM DTT, 0.2 mg/mL BSA. The concentrations of pNPP present in 40 ul were the same for TCPTP, CD45, LAR and PTP1B. For PP2B they were 24 mM, 60 mM, 150 mM, and 375 mM; for cdc25C they were 16 mM, 40 mM, 100 mM, and 250 mM; for SHP-2 they were 6.4 mM, 16 mM, 40 mM, and 100 mM.

The target in a further assay is T2, CD45 (Homo sapiens, UniProt P08575).
T2 construct: purchased Biomol Research Laboratories, Inc. SE-135
T2 sequence (P08575 609-1306 limits assumed): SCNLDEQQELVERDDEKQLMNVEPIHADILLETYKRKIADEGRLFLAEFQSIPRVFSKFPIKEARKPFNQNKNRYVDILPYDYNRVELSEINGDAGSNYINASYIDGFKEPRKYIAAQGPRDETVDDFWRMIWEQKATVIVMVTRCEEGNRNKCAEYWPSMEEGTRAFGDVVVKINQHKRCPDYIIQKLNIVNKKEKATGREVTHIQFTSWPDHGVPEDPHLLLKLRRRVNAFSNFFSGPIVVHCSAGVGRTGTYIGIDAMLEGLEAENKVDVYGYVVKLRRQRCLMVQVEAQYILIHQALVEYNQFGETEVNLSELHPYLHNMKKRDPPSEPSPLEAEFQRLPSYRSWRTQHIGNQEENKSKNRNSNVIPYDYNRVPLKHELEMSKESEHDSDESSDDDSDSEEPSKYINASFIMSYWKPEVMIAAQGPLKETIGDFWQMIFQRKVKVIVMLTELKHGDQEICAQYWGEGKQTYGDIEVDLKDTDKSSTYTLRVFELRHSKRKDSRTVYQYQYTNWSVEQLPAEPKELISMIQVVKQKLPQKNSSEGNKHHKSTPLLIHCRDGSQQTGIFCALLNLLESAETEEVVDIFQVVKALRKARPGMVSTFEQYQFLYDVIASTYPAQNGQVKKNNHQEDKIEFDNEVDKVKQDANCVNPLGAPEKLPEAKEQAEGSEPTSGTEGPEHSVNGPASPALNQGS
The assay can be described thus: Inhibition constant determination, selectivity panel: CD45 (pNPP hydrolysis). The class given is biochemical. To be noted: competitive Ki; pNPP substrate; read-out: Phosphatase Inhibition Constants (Kic) CD45. How it is done: CD45 was obtained commercially (catalog#SE-135 Biomol Research Laboratories, Inc. 5120 Butler Pike, Plymouth Meeting, Pa.).
as §1

Assay [1] addresses T3, TCPTP (Homo sapiens, UniProt P17706).
T3 sequence (P17706 1-283): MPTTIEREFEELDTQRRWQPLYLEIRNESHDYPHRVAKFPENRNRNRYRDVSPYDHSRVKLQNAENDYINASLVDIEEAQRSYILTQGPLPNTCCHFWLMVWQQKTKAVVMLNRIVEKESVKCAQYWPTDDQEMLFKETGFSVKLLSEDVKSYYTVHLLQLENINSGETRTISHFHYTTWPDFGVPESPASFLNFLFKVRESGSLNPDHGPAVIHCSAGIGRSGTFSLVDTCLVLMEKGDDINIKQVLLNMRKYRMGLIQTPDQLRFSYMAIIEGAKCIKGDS
The assay can be described thus: biochemical.

Another assay has as its target T4, SHP-2 (full length) (Homo sapiens, UniProt Q06124).
T4 sequence (Q06124 1-593): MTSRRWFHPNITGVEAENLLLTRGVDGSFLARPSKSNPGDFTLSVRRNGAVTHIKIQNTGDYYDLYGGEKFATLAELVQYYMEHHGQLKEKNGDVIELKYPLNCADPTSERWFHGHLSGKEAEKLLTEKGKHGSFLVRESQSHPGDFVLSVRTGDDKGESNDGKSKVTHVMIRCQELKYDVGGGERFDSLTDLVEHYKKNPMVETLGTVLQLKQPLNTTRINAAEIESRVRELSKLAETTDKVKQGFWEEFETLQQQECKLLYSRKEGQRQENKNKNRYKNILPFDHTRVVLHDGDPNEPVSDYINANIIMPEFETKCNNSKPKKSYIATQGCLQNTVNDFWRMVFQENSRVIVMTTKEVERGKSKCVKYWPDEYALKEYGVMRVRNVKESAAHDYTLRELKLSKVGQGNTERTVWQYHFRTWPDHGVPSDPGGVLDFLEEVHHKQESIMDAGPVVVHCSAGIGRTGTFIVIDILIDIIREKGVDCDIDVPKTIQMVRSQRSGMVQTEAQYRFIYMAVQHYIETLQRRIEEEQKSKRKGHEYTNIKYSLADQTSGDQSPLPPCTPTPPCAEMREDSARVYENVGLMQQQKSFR
Kind of assay: Inhibition constant determination, selectivity panel: SHP-2 (pNPP hydrolysis). The class given is biochemical. To be noted: competitive Ki; pNPP substrate; read-out: Phosphatase Inhibition Constants (Kic) SHP-2. How it is done:
Cells were lysed with a French press following by centrifugation to remove debris. Proteins were precipitated with 50% saturated ammonium sulfate, recovered by centrifugation, and chromatographed on Sephadex G-25 (Amersham Pharmacia Biotech) in 50 mM Tris-HCl pH 8, 10 mM NaCl, 1 mM DTT, 1 mM EDTA. The void volume was pooled and chromatographed on Q-Sepharose-FF in the same buffer, and SHP-2 was eluted with a 0-150 mM gradient of NaCl in the same buffer. Fractions were assayed, pooled, and stored as described for PTP1B.
as §1

Assay [2] deals with T5, CDC25c (fusion with glutathione-S-transferase) (Homo sapiens, UniProt P30307).
T5 sequence (P30307 1-473): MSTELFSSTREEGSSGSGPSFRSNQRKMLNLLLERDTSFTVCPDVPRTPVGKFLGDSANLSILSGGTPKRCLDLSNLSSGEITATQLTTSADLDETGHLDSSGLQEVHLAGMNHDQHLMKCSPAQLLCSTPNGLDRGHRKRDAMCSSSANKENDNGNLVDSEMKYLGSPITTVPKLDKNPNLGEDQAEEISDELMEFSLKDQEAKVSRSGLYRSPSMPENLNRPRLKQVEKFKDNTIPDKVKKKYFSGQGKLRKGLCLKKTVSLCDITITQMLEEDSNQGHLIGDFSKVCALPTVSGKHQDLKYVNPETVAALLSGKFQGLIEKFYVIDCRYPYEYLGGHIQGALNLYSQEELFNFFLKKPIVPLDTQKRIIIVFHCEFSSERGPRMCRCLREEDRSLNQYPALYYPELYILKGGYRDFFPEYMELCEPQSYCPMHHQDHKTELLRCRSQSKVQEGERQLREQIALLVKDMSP
Kind of assay: Inhibition constant determination, selectivity panel: cdc25c (pNPP hydrolysis). To be noted: competitive Ki; pNPP substrate; read-out: Phosphatase Inhibition Constants (Kic) Cdc25c. The class given is biochemical. How it is done:
CDC25c was expressed as a fusion with glutathione-S— transferase (aka GST) in E. coli. Cells were lysed and debris removed as described for SHP-2, except lysis was in PBS (GibcoBRL Life Technologies, Grand Island, N.Y., Stock # 70011-044, diluted 10-fold). The soluble proteins were chromatographed on Glutathione-Sepharose FF (Amersham Pharmacia Biotech) and eluted with 10 mM reduced glutathione in 25 mM TRIS-HCl, pH 7.5, 150 mM NaCl. Fractions were assayed, pooled and stored as decribed for PTP1B.
as §1

Another assay concerns the target T6, LAR (Homo sapiens, UniProt P10586).
T6 construct: purchased New England Biolabs P0750L
T6 sequence (P10586 1301-1639 limits assumed): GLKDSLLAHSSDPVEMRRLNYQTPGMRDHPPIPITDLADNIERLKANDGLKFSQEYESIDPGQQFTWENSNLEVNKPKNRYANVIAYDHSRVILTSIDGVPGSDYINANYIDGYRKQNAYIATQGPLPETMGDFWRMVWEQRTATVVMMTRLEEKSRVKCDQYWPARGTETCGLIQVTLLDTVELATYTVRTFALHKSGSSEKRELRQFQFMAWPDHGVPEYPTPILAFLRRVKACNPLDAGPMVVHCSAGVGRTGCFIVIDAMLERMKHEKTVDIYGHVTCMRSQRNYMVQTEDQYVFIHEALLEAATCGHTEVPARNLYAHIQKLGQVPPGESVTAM
The assay can be described thus: Inhibition constant determination, selectivity panel: LAR (pNPP hydrolysis). The class given is biochemical. To be noted: competitive Ki; pNPP substrate; read-out: Phosphatase Inhibition Constants (Kic) LAR.

In assay [3] the target is T3, TCPTP. The settings on record: read-out: Phosphatase Inhibition Constants (Kic) TC-PTP; competitive Ki, +/- S.D.; pNPP substrate.
Assay [4] deals with T7, Human protein tyrosine phosphatase 1B (PTP1B, amino acid residues 1-321) (Homo sapiens, UniProt P18031).
T7 sequence (P18031 1-321): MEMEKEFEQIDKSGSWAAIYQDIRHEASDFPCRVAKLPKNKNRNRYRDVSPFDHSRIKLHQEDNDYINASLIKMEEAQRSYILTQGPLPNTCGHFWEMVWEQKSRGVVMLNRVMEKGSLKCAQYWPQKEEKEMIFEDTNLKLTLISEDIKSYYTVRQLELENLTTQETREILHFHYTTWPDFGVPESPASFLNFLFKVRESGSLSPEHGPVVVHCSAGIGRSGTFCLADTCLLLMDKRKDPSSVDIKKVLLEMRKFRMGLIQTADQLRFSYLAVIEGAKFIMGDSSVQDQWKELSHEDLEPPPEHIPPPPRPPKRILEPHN
To be noted: read-out: Phosphatase Inhibition Constants (Kic) PTP1B; competitive Ki, +/- S.D.; pNPP substrate.
Experimental: Human protein tyrosine phosphatase 1B (PTP1B, amino acid residues 1-321) was expressed in E. coli BL21 (DE3). The cell paste was resuspended in 4 cell paste volumes of lysis buffer containing 100 mM MES (pH 6.5), 100 mM NaCl, 1 mM EDTA, 1 mM DTT, 1 mM PMSF, 20 U/mL Benzonase, 0.5 mg/mL lysozyme, and 1 mM MgCl2 and incubated for 35 minutes at room temperature. The cells were lysed at 11,000 psi using a Rannie homogenizer, and the homogenate was clarified in a Beckman GSA rotor at 10,000×g for 30 minutes at 4° C. […] After sample application, the column was washed with 10 column volume (CV) of the same buffer, PTP1B was eluted with a 20 CV linear gradient of 100 mM to 500 mM NaCl in the same buffer. The fractions (28 mL each) were assayed for purity by 10-20% Tris-Glycine SDS-PAGE. Fractions which contained >95% protein tyrosine phosphatase 1 B were combined. These fractions were concentrated to approximately 10 mg/mL by ultrafiltration and chromatographed on a 180 mL (1.6 cm×90 cm) Superdex 75 column in 10 mM TRIS-HCl, pH 7.5, 25 mM NaCl, 0.2 mM EDTA, 3 mM DTT. The fractions (2 mL each) were assayed for purity by 10-20% Tris-Glycine SDS-PAGE. Fractions which contained >99% protein tyrosine phosphatase 1 B were combined. Aliquots were frozen in liquid N2 and stored at −70° C. until used. Once thawed, PTP1B was stored on ice and used within 6 hours.

T1 sequence (P63099 2-170 partner limits assumed, other chains not shown): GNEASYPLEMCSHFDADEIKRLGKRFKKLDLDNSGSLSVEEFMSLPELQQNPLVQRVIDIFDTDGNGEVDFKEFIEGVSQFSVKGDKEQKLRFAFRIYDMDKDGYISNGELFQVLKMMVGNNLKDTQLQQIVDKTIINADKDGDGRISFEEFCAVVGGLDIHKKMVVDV

In the case of `COC(=O)c1c(O)cccc1OC/C=C/c1cccc(-c2cc(C(=O)O)no2)c1` [Example 1, 5-(3-((1E)-3-(3-hydroxy-2-(methoxycarbonyl)phenoxy)prop-1-enyl)phenyl)isoxazole-3-carboxylic Acid], the Ki on Bovine PP2B was over 300 µM; at CD45, over 300 µM; at TCPTP [1], 202 µM; at SHP-2 (full length), over 300 µM; in assay [2], over 300 µM; on LAR it was over 300 µM.
`COC(=O)c1c(O)cccc1OC/C=C/c1ccc(F)c(-c2cc(C(=O)O)no2)c1` [Example 8, 5-(2-fluoro-5-((1E)-3-(3-hydroxy-2-(methoxycarbonyl)phenoxy)prop-1-enyl)phenyl)isoxazole-3-carboxylic Acid]: the Ki is over 300 µM on Bovine PP2B; over 300 µM at CD45; over 300 µM on SHP-2 (full length); 164 µM at TCPTP [3]; over 300 µM in assay [2]; 6.9 µM in assay [4].
